Source: ChEMBL document CHEMBL1201862, “PubChem BioAssay data set” (2004)
Activity calls are given as the source filed them. For most assays here, no stated cut-off is given here; in the data, actives have a measured EC50 and inactives only a lower limit.

Tests used:
[1] = target: T1, Apoptotic protease-activating factor 1 (Homo sapiens, UniProt O14727); assay type: functional
T1 sequence (O14727 whole entry): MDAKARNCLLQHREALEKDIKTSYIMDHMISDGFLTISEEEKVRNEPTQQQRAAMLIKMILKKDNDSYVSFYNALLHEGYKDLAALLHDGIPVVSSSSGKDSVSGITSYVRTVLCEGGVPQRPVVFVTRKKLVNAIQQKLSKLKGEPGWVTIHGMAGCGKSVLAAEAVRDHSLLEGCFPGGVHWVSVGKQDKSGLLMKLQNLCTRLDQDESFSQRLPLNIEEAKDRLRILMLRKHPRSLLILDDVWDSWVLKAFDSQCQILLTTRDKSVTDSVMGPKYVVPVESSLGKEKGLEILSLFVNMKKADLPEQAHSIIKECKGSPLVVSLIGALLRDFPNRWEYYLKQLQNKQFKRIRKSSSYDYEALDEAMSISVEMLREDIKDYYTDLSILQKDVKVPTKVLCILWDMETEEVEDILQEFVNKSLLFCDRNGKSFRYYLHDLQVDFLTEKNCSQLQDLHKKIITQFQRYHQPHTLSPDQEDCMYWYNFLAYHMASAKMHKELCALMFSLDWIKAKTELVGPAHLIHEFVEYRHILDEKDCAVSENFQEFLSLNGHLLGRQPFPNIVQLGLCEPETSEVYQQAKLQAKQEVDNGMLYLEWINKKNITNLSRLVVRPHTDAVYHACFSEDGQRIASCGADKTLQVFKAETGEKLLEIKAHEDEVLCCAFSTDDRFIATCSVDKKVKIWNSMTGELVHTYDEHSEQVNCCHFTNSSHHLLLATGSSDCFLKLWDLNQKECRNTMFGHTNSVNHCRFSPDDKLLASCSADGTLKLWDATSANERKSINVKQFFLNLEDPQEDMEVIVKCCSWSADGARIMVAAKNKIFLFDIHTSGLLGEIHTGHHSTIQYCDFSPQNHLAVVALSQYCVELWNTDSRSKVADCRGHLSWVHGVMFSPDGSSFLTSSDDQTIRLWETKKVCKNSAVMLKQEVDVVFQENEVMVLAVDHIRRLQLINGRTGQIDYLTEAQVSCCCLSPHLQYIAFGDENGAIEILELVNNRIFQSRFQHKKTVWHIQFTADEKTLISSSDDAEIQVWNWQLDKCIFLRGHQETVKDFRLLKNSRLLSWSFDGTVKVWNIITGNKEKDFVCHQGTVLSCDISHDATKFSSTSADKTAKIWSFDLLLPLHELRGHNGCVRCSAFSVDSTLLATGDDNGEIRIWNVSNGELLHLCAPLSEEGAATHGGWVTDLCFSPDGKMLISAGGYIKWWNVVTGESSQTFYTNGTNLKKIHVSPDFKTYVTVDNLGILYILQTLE

[2] = NIH-3T3 fibroblast cytotoxicity, dose response, cytotoxicity control, cell-based, fluorescence, Alamar Blue, secondary assay (AID 2327); assay type: functional;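 further: NIH-3T3 mouse fibroblasts cultured with fluconazole at 8 µg/mL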
[3] = C. albicans growth with fluconazole, confirmation, fluorescence, retest (AID 2467); assay type: functional, cell-based
[4] = target: T2, Serine/threonine-protein phosphatase (Candida dubliniensis (strain CD36 / CBS 7987 / NCPF 3949 / NRRLY-17841) (Yeast), UniProt B9W6M3); test: calcineurin pathway inhibitors in yeast reporter, dose response, S. cerevisiae, CDRE-lacZ, luminescence, secondary (AID 2388); assay type: functional, cell-based;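 further: yeast reporter cells carrying a calcineurin-responsive lacZ construct stimulated with calcium chloride; luminescent beta-galactosidase reporter signal in whole cells rather than isolated phosphatase activity; potency for inhibition where a drop in reporter signal means calcineurin blockade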
T2 sequence (B9W6M3 whole entry): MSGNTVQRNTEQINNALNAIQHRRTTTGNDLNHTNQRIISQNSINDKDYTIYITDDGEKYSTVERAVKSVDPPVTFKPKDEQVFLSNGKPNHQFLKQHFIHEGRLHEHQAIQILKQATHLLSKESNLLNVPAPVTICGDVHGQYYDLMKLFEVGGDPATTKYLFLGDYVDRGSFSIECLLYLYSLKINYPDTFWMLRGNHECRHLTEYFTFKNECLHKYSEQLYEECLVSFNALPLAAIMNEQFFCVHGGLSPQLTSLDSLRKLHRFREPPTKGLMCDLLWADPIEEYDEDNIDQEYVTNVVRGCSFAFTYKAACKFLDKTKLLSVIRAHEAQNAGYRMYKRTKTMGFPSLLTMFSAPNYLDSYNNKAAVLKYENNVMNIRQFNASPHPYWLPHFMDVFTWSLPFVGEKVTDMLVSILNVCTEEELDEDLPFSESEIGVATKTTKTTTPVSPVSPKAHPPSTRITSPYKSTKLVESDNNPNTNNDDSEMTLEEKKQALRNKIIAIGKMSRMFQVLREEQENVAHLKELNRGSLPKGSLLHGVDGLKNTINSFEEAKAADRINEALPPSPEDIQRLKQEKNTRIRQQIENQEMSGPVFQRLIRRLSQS

Exodeoxyribonuclease V = target: T3, Exodeoxyribonuclease V (Escherichia coli (strain K12), UniProt P04993+P07648+P08394); test: E. coli RecBCD inhibitors, dose response, counter-screen for AddAB inhibitor project, absorbance, V66 E. coli, mutant T4 phage (AID 492957); assay type: functional, cell-based, Escherichia coli str. K-12 substr. MG1655
T3 sequence (P04993 whole entry): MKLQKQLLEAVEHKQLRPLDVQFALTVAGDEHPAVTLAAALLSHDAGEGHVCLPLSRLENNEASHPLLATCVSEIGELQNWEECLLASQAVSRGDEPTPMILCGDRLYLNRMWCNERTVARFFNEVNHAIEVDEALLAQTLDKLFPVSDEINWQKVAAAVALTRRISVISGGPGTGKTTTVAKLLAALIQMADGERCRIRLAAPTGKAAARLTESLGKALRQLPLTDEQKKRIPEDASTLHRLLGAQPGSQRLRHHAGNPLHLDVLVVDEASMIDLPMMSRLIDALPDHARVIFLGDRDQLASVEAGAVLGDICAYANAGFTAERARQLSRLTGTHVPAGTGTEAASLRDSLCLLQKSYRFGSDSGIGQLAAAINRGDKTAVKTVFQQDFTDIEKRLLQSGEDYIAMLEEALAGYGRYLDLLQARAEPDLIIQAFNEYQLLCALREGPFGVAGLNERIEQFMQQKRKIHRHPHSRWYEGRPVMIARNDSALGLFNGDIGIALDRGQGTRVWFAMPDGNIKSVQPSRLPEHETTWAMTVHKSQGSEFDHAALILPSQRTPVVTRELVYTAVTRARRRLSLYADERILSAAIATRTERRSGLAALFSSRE
T3 sequence (P07648 whole entry): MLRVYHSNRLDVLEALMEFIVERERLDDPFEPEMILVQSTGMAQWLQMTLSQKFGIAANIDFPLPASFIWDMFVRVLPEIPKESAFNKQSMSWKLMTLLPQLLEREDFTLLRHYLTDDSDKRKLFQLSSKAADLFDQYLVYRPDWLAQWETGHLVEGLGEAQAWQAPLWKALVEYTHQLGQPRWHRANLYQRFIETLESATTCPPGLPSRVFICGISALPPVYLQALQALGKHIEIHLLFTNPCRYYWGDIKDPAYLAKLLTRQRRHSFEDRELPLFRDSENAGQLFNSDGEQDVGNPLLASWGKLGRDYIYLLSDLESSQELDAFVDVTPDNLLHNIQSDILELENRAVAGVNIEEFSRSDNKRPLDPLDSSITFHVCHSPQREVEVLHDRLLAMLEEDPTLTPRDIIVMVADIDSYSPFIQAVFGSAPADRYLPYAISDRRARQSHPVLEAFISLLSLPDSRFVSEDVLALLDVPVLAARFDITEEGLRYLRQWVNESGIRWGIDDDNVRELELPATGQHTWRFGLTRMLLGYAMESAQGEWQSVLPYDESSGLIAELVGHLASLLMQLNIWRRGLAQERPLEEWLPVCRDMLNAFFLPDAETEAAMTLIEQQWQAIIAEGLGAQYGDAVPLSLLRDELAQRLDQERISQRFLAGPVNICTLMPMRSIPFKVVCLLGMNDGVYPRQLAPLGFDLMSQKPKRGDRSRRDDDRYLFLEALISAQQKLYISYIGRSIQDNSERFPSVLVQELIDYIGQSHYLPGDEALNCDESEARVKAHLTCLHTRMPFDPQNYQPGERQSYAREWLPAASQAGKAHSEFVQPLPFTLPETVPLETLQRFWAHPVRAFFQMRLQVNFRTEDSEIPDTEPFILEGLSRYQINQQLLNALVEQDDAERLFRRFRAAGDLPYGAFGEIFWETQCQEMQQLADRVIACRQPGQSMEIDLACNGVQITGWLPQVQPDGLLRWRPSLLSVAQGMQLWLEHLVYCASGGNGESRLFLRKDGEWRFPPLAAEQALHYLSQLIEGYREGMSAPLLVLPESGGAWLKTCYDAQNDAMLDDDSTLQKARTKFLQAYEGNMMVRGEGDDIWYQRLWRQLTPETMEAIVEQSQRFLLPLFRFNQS
T3 sequence (P08394 whole entry): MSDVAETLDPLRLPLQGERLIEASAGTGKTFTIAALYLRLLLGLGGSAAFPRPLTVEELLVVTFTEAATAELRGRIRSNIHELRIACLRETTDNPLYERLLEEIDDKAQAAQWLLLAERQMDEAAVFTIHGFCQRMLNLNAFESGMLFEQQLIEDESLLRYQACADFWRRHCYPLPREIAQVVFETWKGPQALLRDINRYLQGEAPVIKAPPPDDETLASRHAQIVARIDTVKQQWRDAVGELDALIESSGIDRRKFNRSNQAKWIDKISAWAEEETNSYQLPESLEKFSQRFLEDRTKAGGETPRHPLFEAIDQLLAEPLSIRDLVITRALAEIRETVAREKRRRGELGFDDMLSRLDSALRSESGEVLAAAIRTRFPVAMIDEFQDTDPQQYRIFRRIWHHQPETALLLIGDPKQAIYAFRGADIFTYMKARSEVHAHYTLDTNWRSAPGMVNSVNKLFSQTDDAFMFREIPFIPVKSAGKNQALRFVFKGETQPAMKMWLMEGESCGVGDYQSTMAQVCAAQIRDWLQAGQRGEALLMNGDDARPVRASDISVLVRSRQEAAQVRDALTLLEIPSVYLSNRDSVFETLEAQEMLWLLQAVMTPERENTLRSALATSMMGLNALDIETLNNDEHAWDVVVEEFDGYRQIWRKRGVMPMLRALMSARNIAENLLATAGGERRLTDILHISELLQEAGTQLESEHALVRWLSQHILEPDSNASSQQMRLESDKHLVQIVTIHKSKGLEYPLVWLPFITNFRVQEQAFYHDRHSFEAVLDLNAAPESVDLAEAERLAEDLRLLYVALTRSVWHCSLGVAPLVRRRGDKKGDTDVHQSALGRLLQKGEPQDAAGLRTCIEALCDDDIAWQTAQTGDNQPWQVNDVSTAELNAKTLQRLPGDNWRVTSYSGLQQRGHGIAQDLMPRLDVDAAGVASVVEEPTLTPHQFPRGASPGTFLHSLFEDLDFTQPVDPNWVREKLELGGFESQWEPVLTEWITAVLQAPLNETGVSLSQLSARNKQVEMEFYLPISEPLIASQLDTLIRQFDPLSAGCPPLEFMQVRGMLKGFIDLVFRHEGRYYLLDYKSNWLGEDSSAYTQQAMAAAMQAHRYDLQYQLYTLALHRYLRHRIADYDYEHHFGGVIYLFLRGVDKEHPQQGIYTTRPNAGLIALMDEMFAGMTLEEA

[5] = Counterscreen for AddAB inhibitors: absorbance-based bacterial cell-based high throughput dose response assay for inhibitors of bacterial viability. [Related pubchem assays (depositor defined):AID435030, AID449728, AID449731, AID488942, AID488955, AID488956]; assay type: functional
[6] = target: ATP-dependent molecular chaperone HSP82 (Candida albicans (strain WO-1) (Yeast), UniProt C4YTQ8); test: loss of DOC-induced GRE-beta-galactosidase reporter signal, dose response, Hsp90 inhibitor project, S. cerevisiae, luminescence (AID 2400); assay type: functional, cell-based;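 further: beta-galactosidase luminescence from glucocorticoid response element reporter as proxy for Hsp90 function; inhibitor potency where signal loss means Hsp90 inhibition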
Chain of ATP-dependent molecular chaperone HSP82 (C4YTQ8 whole entry): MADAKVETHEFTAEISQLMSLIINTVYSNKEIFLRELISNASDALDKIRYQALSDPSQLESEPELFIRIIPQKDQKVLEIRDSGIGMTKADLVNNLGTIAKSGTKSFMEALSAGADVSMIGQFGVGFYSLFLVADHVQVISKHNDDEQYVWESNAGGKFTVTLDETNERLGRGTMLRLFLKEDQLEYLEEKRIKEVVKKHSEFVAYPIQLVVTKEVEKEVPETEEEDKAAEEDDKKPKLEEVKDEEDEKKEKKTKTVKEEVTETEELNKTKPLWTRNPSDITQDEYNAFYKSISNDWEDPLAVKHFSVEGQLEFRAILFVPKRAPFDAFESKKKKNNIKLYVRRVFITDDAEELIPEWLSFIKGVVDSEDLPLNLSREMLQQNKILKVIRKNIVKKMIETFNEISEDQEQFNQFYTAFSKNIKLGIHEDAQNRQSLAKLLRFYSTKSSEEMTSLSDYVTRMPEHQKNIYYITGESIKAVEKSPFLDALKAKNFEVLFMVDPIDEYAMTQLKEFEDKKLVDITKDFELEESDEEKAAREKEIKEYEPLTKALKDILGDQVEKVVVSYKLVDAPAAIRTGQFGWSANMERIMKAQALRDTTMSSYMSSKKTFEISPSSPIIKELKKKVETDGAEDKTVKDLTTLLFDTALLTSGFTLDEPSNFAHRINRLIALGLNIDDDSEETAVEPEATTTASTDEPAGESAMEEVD

With `COc1ccc(CC(=O)N(Cc2ccccc2)c2ccc(C)cc2)cc1S(=O)(=O)N1CCOCC1` as the molecule, how does the IC50 [1] read?
Its IC50 is 43.7 µM (active).

For `CC(=O)NC1CCCN(O)C(=O)/C=C(\C)CCOC(=O)C(NC(C)=O)CCCN(O)C(=O)/C=C(\C)CCOC(=O)C(NC(C)=O)CCCN(O)C(=O)/C=C(\C)CCOC1=O` (configuration not stated), which EC50 [2] is on record?
The EC50 was > 160 µM (inactive).

What about the EC50 [3] of the same molecule?
Its EC50 is 0.742 µM (active).

And the EC50 [4]?
Its EC50 is > 180 µM (inactive).

And the IC50 (Exodeoxyribonuclease V)?
The IC50 was > 119 µM (inactive).

And the IC50 [5]?
Its IC50 is > 119 µM (inactive).

What about the EC50 [6] of the same molecule?
The EC50 was > 160 µM (inactive).
